Data taken from patent publication US20080171051A1, “Cancer Treatment” (priority 2003, published 2008).

Legend:
HCT116p53+/+ cells [1] = experiment: Flow cytometric analysis of apoptosis, HCT116p53+/+ cells; type: cell-based, human; settings: for cells in the sub-G0/G1 apoptotic fraction: 0.5 nM siRNA, no drug, 5 μM 5-FU or 1 μM oxaliplatin for 48 hours
Method: (§1) Flow Cytometric Analysis. Cells were seeded at 1×10^5 per well of a 6-well tissue culture plate. […] DNA content of harvested cells was evaluated after propidium iodide staining of cells using the EPICS XL Flow Cytometer (Coulter, Miami, Fla.).
(§2) siRNA transfections. FLIP-targeted siRNA was designed using the Ambion siRNA target finder and design tool (www.ambion.com/techlib/misc/siRNA_finder.html) to inhibit both splice variants of c-FLIP. Both c-FLIP-targeted (FT) and scrambled control (SC) siRNA were obtained from Xeragon (Germantown, Md.). The FT siRNA sequence used was: […]. The FL siRNA sequence used was: […]. The control non-silencing siRNA sequence (SC) used was: […]. siRNA transfections were performed on sub-confluent cells incubated in Optimem medium using the oligofectamine reagent (both from Life Technologies Inc) according to the manufacturer's instructions.

c-FLIP [2] = experiment: Western blot of c-FLIP expression after siRNA transfection, HCT116p53+/+ cells; type: cell-based, human; settings: for down-regulation of c-FLIP expression: nanomolar concentrations
Method: (§3) Western Blotting. Western blots were performed as previously described (Longley et al., 2002). The Fas/CD95, Bcl-2 and BID (Santa Cruz Biotechnology, Santa Cruz, Calif.), caspase 8 (Oncogene Research Products, Darmstadt, Germany), PARP (Pharmingen, BD Biosciences, Oxford, England), c-FLIP (NF-6, Alexis, Bingham UK) DcR3 (Imgenex, San Diego, Calif.) mouse monoclonal antibodies were used in conjunction with a horseradish peroxidase (HRP)-conjugated sheep anti-mouse secondary antibody (Amersham, Little Chalfont, Buckinghamshire, England). FasL rabbit polyclonal antibody (Santa Cruz Biotechnology) was used in conjunction with an HRP-conjugated donkey anti-rabbit secondary antibody (Amersham). Equal loading was assessed using a β-tubulin mouse monoclonal primary antibody (Sigma).
siRNA transfections. FLIP-targeted siRNA was designed using the Ambion siRNA target finder and design tool (www.ambion.com/techlib/misc/siRNA_finder.html) to inhibit both splice variants of c-FLIP. Both c-FLIP-targeted (FT) and scrambled control (SC) siRNA were obtained from Xeragon (Germantown, Md.). The FT siRNA sequence used was: AAGCAGTCTGTTCAAGGAGCA. The FL siRNA sequence used was: AAGGAACAGCTTGGCGCTCAA. The control non-silencing siRNA sequence (SC) used was: AATTCTCCGAACGTGTCACGT. siRNA transfections were performed on sub-confluent cells incubated in Optimem medium using the oligofectamine reagent (both from Life Technologies Inc) according to the manufacturer's instructions.

MCF-7 cells = type: cell-based; settings: alone or in combination with 5-FU (data not shown)
Method: Cell Viability Assays. […] To assess chemotherapy/siRNA interactions, 20,000-50,000 cells were seeded per well on 24-well plates. Twenty-four hours later, the cells were transfected with FLIP-targeted (FT) or scrambled siRNA (SC). Four hours after transfection, the cells were treated with a range of concentrations of each drug for a further 72-96 hours. MTT (0.5 mg/ml) was added to each well and the cells were incubated at 37° C. for a further 2 hours. […] FLIP-targeted siRNA was designed using the Ambion siRNA target finder and design tool (www.ambion.com/techlib/misc/siRNA_finder.html) to inhibit both splice variants of c-FLIP. Both c-FLIP-targeted (FT) and scrambled control (SC) siRNA were obtained from Xeragon (Germantown, Md.). The FT siRNA sequence used was: [NT] The FL siRNA sequence used was: [NT] The control non-silencing siRNA sequence (SC) used was: [NT] siRNA transfections were performed on sub-confluent cells incubated in Optimem medium using the oligofectamine reagent (both from Life Technologies Inc) according to the manufacturer's instructions.

HCT116p53+/+ cells [3] = experiment: MTT cell viability assay, HCT116 p53 wild type cells; type: cell-based, human; settings: for effect on cell viability: HCT116 cells, presence or absence of drug; for IC60(72h) dose: HCT116p53+/+ cells; for synergy with CH-11 (RI from MTT): HCT116 p53 wild-type, drug 24 hours then CH-11 200 ng/ml for 48 hours
Method: (§4) Cell Viability Assays. […] To investigate drug-induced Fas-mediated apoptosis, cells were seeded at 2,000-5,000 cells per well on 96-well plates. […] To assess chemotherapy/siRNA interactions, 20,000-50,000 cells were seeded per well on 24-well plates. Twenty-four hours later, the cells were transfected with FLIP-targeted (FT) or scrambled siRNA (SC). […] MTT (0.5 mg/ml) was added to each well and the cells were incubated at 37° C. for a further 2 hours. The culture medium was removed and formazan crystals reabsorbed in 200 μl (96-well) or 1 ml (24-well) DMSO. Cell viability was determined by reading the absorbance of each well at 570 nm using a microplate reader (Molecular Devices, Wokingham, England).
(§5) siRNA transfections. FLIP-targeted siRNA was designed using the Ambion siRNA target finder and design tool (www.ambion.com/techlib/misc/siRNA_finder.html) to inhibit both splice variants of c-FLIP. Both c-FLIP-targeted (FT) and scrambled control (SC) siRNA were obtained from Xeragon (Germantown, Md.).
(§6) Statistical Analyses. The nature of the interaction between the chemotherapeutic drugs and FLIP-targeted siRNAs was determined by calculating the combination index (CI) according to the method of Chou and Talalay (14). CI values were calculated from isobolograms generated using the CalcuSyn software programme (Microsoft Windows). […] An unpaired two-tailed t test was used to determine the significance of changes in levels of apoptosis between different treatment groups.

HCT116p53-/- cells [4] = experiment: Flow cytometric analysis of apoptosis, HCT116p53-/- cells; type: cell-based, human; settings: for cells in the sub-G0/G1 fraction (apoptosis): HCT116p53-/- cells, 1 nM siRNA, no drug, 5 μM 5-FU, 5 μM oxaliplatin or 1 μM CPT-11, 72 hours
Method: as §1, §2

HLacZ cell line = experiment: Flow cytometric analysis of apoptosis, HLacZ control cell line; type: cell-based, human; settings: 5 μM 5-FU for 72 hours
Method: (§7) Generation of c-FLIP overexpressing cell lines. c-FLIPL and c-FLIPS coding regions were PCR amplified and ligated into the pcDNA/V5-His TOPO vector according to the manufacturer's instructions (Life Technologies Inc.). HCT116p53^+/+ cells were co-transfected with 10 μg of each c-FLIP expression construct and 1 μg of a construct expressing a puromycin resistance gene (pIRESpuro3, Clontech) using GeneJuice. Stably transfected HCT116 cells were selected and maintained in medium supplemented with 1 μg/ml puromycin (Life Technologies Inc.). Stable overexpression of c-FLIP was assessed by Western blot analysis.
as §1

HFL17 cells = experiment: Flow cytometric analysis of apoptosis, HFL17 cells (c-FLIPL-overexpressing HCT116); type: cell-based, human; settings: 5 μM 5-FU for 72 hours
Method: as §7, §1

HFL24 cells = experiment: Flow cytometric analysis of apoptosis, HFL24 cells (c-FLIPL-overexpressing HCT116); type: cell-based, human; settings: 5 μM 5-FU for 72 hours
Method: as §7, §1

Fas = experiment: Western blot analysis of Fas expression in MCF-7 cells; type: cell-based; settings: 72 hours after IC60 dose
Method: as §3

[5] = patients with metastatic colorectal cancer; cited from earlier work
HCT116p53-/- cells [6] = experiment: MTT cell viability assay, HCT116 p53 null cells; type: cell-based, human; settings: for synergy with CH-11 (RI from MTT): HCT116 p53 null, drug 24 hours then CH-11 200 ng/ml for 48 hours
Method: as §4, §5, §6

RKO cells = experiment: MTT cell viability assay, RKO cells; type: cell-based; settings: absence of chemotherapy, read-out: IC50(72h) dose
Method: as §4, §5
(§8) Statistical Analyses. The nature of the interaction between the chemotherapeutic drugs and FLIP-targeted siRNAs was determined by calculating the combination index (CI) according to the method of Chou and Talalay (14). CI values were calculated from isobolograms generated using the CalcuSyn software programme (Microsoft Windows). […]

H630 cells = experiment: MTT cell viability assay, H630 cells; type: cell-based; settings: absence of chemotherapy, read-out: IC50(72h) dose
Method: as §4, §5, §8

c-FLIP [7] = experiment: Western blot of c-FLIP expression after siRNA transfection, MCF-7 cells; type: cell-based; settings: 10 nM FT siRNA
Method: as §3
(§9) siRNA transfections. FLIP-targeted siRNA was designed using the Ambion siRNA target finder and design tool (www.ambion.com/techlib/misc/siRNA_finder.html) to inhibit both splice variants of c-FLIP. Both c-FLIP-targeted (FT) and scrambled control (SC) siRNA were obtained from Xeragon (Germantown, Md.). The FT siRNA sequence used was: AAGCAGTCTGTTCAAGGAGCA. The FL siRNA sequence used was: AAGGAACAGCTTGGCGCTCAA. […]

c-FLIP [8] = experiment: Western blot of c-FLIP expression after siRNA transfection, HCT116p53-/- cells; type: cell-based, human; settings: 1 nM FT siRNA
Method: as §3, §9

c-FLIP [9] = experiment: Western blot of c-FLIP expression after siRNA transfection, RKO cells; type: cell-based; settings: 1 nM, 24 hours
Method: as §3, §9

c-FLIP [10] = experiment: Western blot of c-FLIP expression after siRNA transfection, H630 cells; type: cell-based; settings: 1 nM, 24 hours
Method: as §3, §9

Fas death receptor = Fas death receptor (UniProt P25445); experiment: cell-based or functional assay
[11] = adjuvant setting of colorectal cancer; cited from earlier work
[12] = system: c-FLIPL-overexpressing HCT116p53+/+ cell lines (HFL17, HFL24); experiment: Growth inhibition (MTT) in c-FLIPL-overexpressing HCT116p53+/+ cell lines versus HLacZ; type: cell-based, human
Method: as §4

Fas death receptor, sequence (P25445 26-335 limits assumed): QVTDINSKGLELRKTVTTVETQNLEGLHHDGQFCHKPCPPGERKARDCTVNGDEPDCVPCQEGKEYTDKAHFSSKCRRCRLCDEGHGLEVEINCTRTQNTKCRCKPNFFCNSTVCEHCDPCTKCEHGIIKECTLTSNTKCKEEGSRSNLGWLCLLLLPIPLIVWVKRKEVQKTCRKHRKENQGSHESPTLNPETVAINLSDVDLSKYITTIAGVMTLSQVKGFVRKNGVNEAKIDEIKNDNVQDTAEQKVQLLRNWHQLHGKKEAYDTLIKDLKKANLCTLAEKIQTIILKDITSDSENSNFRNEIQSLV

FL siRNA: siRNA specifically down-regulating c-FLIPL; sequence AAGGAACAGCTTGGCGCTCAA (AAGGAACAGCTTGGCGCTCAA; listed as DNA, chemistry not given here)
apoptosis in the absence of chemotherapy (HCT116p53+/+ cells [1]; PARP cleavage and flow cytometry (data not shown)): induced apoptosis | down-regulation of c-FLIP expression (c-FLIP [2]): specifically down-regulate the long splice form without affecting expression of c-FLIPS

SC siRNA: control non-silencing siRNA; sequence AATTCTCCGAACGTGTCACGT (AATTCTCCGAACGTGTCACGT; chemistry not given here)
effect on cell viability (MCF-7 cells): no effect on cell viability | effect on cell viability (HCT116p53+/+ cells [3]): no significant effect on cell viability | effect on cell viability (HCT116p53+/+ cells [3]; listed as Control siRNA): no effect on cell viability | cells in the sub-G0/G1 apoptotic fraction (HCT116p53+/+ cells [1]): ~9% | cells in the sub-G0/G1 fraction (apoptosis) (HCT116p53-/- cells [4]): ~9%

O=c1[nH]cc(F)c(=O)[nH]1 [5-FU]
IC60(72h) dose (HCT116p53+/+ cells [3]): 5000 nM | cells in the sub-G1/G0 apoptotic fraction (HLacZ cell line): ~41% | cells in the sub-G1/G0 apoptotic fraction (HFL17 cells): ~15% | cells in the sub-G1/G0 apoptotic fraction (HFL24 cells): ~17% | up-regulation of Fas expression (Fas): ~12 fold | response rates [5]: 10-15%

CCc1c2c(nc3ccc(OC(=O)N4CCC(N5CCCCC5)CC4)cc13)-c1cc3c(c(=O)n1C2)COC(=O)[C@]3(O)CC [CPT-11, irinotecan]
synergy with CH-11 (RI from MTT) (HCT116p53+/+ cells [3]): significant synergy | synergy with CH-11 (RI from MTT) (HCT116p53-/- cells [6]): synergy | synergy with CH-11 (propidium iodide staining) (HCT116p53-/- cells [4]; HCT116 p53 null, drug 24 hours then CH-11 50 ng/ml 24 hours): significant synergy

FT siRNA: siRNA inhibiting both splice variants of c-FLIP; sequence AAGCAGTCTGTTCAAGGAGCA (AAGCAGTCTGTTCAAGGAGCA; chemistry not given here)
IC50 (HCT116p53+/+ cells [3]; HCT116 p53 wild type cells, absence of chemotherapy, read-out: IC50(72h) dose): ~0.7 nM | IC50 (HCT116p53-/- cells [6]; HCT116 p53 null cells, absence of chemotherapy, read-out: IC50(72h) dose): ~2.5 nM | IC50 (RKO cells): ~5 nM | IC50 (H630 cells): ~25 nM | cells in the sub-G0/G1 apoptotic fraction (HCT116p53+/+ cells [1]): ~26% | cells in the sub-G0/G1 fraction (apoptosis) (HCT116p53-/- cells [4]): ~14% | down-regulation of c-FLIP expression (c-FLIP [2]): potently down-regulated expression of both c-FLIP splice variants | time at which both c-FLIP splice forms were efficiently down-regulated (c-FLIP [2]; post-transfection, 1 and 10 nM FT siRNA): 8 h | down-regulation of c-FLIP expression (c-FLIP [7]): potently down-regulated expression of both c-FLIP splice variants | down-regulation of c-FLIP expression (c-FLIP [8]): effectively down-regulated | down-regulation of c-FLIP protein (c-FLIP [9]): down-regulated c-FLIP protein | down-regulation of c-FLIP protein (c-FLIP [10]): down-regulated c-FLIP protein

Cc1nc2ccc(CN(C)c3ccc(C(=O)N[C@@H](CCC(=O)O)C(=O)O)s3)cc2c(=O)[nH]1 [TDX, tomudex]
synergy with CH-11 (RI from MTT) (HCT116p53+/+ cells [3]): significant synergy | synergy with CH-11 (RI from MTT) (HCT116p53-/- cells [6]): synergy | up-regulation of Fas expression (Fas): ~7 fold

agonistic Fas monoclonal antibody CH-11
cells in the sub-G1/G0 apoptotic phase (flow cytometry, MCF-7, 5-FU 72 h then 250 ng/ml CH-11 24 h) (Fas death receptor): 55% | cells in the sub-G1/G0 apoptotic phase (flow cytometry, MCF-7, OXA then CH-11) (Fas death receptor): 50% | cells in the sub-G1/G0 apoptotic phase (flow cytometry, MCF-7, TDX 72 h then 250 ng/ml CH-11 24 h) (Fas death receptor): 60%

5-FU/leucovorin
3-year survival [11]: 72.9%

O=C1[O][Pt]2([NH][C@@H]3CCCC[C@H]3[NH]2)[O]C1=O [OXA, oxaliplatin]
IC60(72h) dose (HCT116p53+/+ cells [3]): 1000 nM | increase in the IC50(72h) dose caused by c-FLIPL overexpression [12]: 1.7-2.0 fold
